Laboratory results taken from patent US12065436B2, “Cardiac sarcomere inhibitors” (Cytokinetics, Inc., priority 2018, dated 2024).

Target: bovine cardiac myofibrils (full-length cardiac myosin ATPase in the native sarcomere) (Bos taurus (Bovine), UniProt Q9BE39)
Assay: Skinned bovine cardiac myofibril ATPase assay (PK/LDH-coupled)
Format: biochemical
Conditions: Ca2+ activating to 75% of maximal rate; for CDMF75 IC15: concentration giving 15% inhibition; for IC50: read-out: CDMF75 IC50
Method in brief: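 Inhibition of steady-state ATPase read at 340 nm through a PK/LDH-coupled NADH system (0.5 mM NADH, 1.5 mM PEP). Detergent-skinned bovine cardiac myofibrils, 1 mg/mL, were tested at pH 6.8 in PIPES/MgCl2 with 50 μM ATP and calcium adjusted to give pCa50 or pCa75 activation.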

Sequence of bovine cardiac myofibrils (full-length cardiac myosin ATPase in the native sarcomere) (Q9BE39 whole entry): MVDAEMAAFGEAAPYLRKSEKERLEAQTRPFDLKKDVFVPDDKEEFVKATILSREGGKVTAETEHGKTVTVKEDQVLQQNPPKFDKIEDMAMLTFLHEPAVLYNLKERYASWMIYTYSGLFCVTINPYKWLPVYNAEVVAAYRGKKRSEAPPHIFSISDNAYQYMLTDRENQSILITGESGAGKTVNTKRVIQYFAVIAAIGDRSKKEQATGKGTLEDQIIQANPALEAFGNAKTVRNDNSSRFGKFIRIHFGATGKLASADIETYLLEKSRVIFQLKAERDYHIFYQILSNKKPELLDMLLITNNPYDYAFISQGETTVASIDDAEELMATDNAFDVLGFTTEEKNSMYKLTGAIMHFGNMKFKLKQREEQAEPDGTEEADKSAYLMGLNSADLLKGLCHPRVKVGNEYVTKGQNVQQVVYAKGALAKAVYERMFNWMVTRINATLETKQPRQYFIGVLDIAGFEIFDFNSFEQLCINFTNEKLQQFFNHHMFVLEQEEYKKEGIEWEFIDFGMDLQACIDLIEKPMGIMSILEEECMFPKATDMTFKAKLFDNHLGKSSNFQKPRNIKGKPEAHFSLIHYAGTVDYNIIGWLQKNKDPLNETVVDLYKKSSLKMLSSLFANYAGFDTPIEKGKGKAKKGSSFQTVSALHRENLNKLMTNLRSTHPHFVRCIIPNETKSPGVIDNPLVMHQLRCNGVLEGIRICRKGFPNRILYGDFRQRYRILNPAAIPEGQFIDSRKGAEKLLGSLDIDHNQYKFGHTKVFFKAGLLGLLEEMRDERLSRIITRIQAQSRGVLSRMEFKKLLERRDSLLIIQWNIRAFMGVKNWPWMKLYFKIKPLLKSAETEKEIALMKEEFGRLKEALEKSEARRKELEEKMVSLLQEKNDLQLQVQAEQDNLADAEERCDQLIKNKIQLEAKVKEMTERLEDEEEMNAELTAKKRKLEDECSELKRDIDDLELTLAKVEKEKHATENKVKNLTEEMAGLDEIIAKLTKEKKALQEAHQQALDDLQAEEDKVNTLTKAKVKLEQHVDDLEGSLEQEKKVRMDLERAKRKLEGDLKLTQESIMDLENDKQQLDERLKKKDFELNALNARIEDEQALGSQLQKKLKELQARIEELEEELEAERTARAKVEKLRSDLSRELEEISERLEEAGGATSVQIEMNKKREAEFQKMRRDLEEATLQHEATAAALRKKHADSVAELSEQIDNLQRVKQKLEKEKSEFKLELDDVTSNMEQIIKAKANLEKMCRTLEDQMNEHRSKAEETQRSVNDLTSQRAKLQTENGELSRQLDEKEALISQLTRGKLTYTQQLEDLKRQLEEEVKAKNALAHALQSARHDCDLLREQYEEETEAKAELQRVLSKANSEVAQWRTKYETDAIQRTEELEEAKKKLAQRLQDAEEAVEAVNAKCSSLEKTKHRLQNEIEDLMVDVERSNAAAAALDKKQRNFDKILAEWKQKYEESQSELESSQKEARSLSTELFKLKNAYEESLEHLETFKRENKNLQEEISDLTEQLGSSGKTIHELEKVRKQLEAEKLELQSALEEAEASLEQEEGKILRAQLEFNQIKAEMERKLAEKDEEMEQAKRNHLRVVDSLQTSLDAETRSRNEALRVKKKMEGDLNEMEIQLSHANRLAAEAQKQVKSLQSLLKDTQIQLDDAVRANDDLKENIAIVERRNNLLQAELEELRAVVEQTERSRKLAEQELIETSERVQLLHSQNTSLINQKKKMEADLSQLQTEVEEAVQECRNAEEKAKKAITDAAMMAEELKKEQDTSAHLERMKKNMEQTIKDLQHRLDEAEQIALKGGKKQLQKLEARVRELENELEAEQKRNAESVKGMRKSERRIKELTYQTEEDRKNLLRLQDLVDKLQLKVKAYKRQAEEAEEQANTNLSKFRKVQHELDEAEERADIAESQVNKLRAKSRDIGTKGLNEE
Sequence of bovine cardiac myofibrils (full-length cardiac myosin ATPase in the native sarcomere) (P85100 whole entry partner): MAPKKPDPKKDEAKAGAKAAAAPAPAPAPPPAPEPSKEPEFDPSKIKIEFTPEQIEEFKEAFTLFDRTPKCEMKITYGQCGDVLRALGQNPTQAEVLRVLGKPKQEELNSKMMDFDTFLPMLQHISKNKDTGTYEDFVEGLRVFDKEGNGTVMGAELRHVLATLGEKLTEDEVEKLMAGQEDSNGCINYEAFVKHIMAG
Sequence of bovine cardiac myofibrils (full-length cardiac myosin ATPase in the native sarcomere) (Q3SZE5 whole entry partner): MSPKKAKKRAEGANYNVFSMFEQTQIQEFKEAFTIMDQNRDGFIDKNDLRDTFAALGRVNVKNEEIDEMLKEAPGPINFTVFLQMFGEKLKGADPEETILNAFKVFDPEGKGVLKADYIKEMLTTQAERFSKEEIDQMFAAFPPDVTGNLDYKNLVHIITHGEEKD

CDMF75 IC15 [µM]	IC50 [µM]	Compound
3.4	11.6	Cc1cnnc(-c2ccc3c(c2)CC[C@H]3NC(=O)c2ccnn2C)c1 [Compound 383, (R)-1-methyl-N-(5-(5-methylpyridazin-3-yl)-2,3-dihydro-1H-inden-1-yl)-1H-pyrazole-5-carboxamide]
1.0	3.4	[2H]C([2H])([2H])c1nc(-c2ccc3c(c2)OC[C@H]3NC(=O)c2cnn(C)c2)no1 [Compound 265, (S)-1-methyl-N-(6-(5-(methyl-d3)-1,2,4-oxadiazol-3-yl)-2,3-dihydrobenzofuran-3-yl)-1H-pyrazole-4-carboxamide]
1.9	7.8	Cn1ncc(C(=O)NC2CCc3cc(-c4noc(C(F)F)n4)ccc32)n1 (stereo not shown) [Compound 83, N-(5-(5-(difluoromethyl)-1,2,4-oxadiazol-3-yl)-2,3-dihydro-1H-inden-1-yl)-2-methyl-2H-1,2,3-triazole-4-carboxamide]
3.0	12.4	Cc1ncc(C(=O)N[C@@H]2CCc3cc(-c4nc(C(F)F)no4)ccc32)o1 [Compound 215, (R)-N-(5-(3-(difluoromethyl)-1,2,4-oxadiazol-5-yl)-2,3-dihydro-1H-inden-1-yl)-2-methyloxazole-5-carboxamide]
0.9	3.4	CCc1nc(-c2ccc3c(c2)CC[C@H]3NC(=O)c2cc(CO)ccc2F)no1 [Compound 649, (R)-N-(5-(5-ethyl-1,2,4-oxadiazol-3-yl)-2,3-dihydro-1H-inden-1-yl)-2-fluoro-5-(hydroxymethyl)benzamide]
1.5	8.9	COCc1nc(-c2ccc3c(c2)CC[C@H]3NC(=O)c2cc(C(F)F)ccn2)no1 [Compound 733, (R)-4-(difluoromethyl)-N-(5-(5-(methoxymethyl)-1,2,4-oxadiazol-3-yl)-2,3-dihydro-1H-inden-1-yl)picolinamide]
0.8	2.8	Cc1nc(-c2ccc3c(c2)CC[C@H]3NC(=O)c2nnn(C)n2)no1 [Compound 136, (R)-2-methyl-N-(5-(5-methyl-1,2,4-oxadiazol-3-yl)-2,3-dihydro-1H-inden-1-yl)-2H-tetrazole-5-carboxamide]
0.9	3.3	Cc1c(C(=O)NC2COc3cc(-c4noc(C(F)F)n4)ccc32)cnn1C (stereo not shown) [Compound 209, N-(6-(5-(difluoromethyl)-1,2,4-oxadiazol-3-yl)-2,3-dihydrobenzofuran-3-yl)-1,5-dimethyl-1H-pyrazole-4-carboxamide]
0.5	1.8	Cc1c(C(=O)N[C@@H]2CCc3cc(-c4noc(C(F)F)n4)ccc32)cnn1C [Compound 91, (R)-N-(5-(5-(difluoromethyl)-1,2,4-oxadiazol-3-yl)-2,3-dihydro-1H-inden-1-yl)-1,5-dimethyl-1H-pyrazole-4-carboxamide]
1.0	3.6	Cc1noc(-c2ccc3c(c2)CC[C@H]3NC(=O)c2nnn(C)n2)n1 [Compound 203, (R)-2-methyl-N-(5-(3-methyl-1,2,4-oxadiazol-5-yl)-2,3-dihydro-1H-inden-1-yl)-2H-tetrazole-5-carboxamide]
1.9	10.1	Cc1cnoc1C(=O)N[C@@H]1CCc2cc(-c3noc(C4COC4)n3)ccc21 [Compound 117, (R)-4-methyl-N-(5-(5-(oxetan-3-yl)-1,2,4-oxadiazol-3-yl)-2,3-dihydro-1H-inden-1-yl)isoxazole-5-carboxamide]
0.4	1.2	CCc1nc(-c2ccc3c(c2)CC[C@H]3NC(=O)c2c[nH]nc2C)no1 [Compound 398, (R)-N-(5-(5-ethyl-1,2,4-oxadiazol-3-yl)-2,3-dihydro-1H-inden-1-yl)-3-methyl-1H-pyrazole-4-carboxamide]
3.5	16.5	COCCCn1cc(C(=O)N[C@@H]2CCc3cc(-c4noc(C5CC5)n4)ccc32)cn1 [Compound 600, (R)-N-(5-(5-cyclopropyl-1,2,4-oxadiazol-3-yl)-2,3-dihydro-1H-inden-1-yl)-1-(3-methoxypropyl)-1H-pyrazole-4-carboxamide]

The remaining lines, values behind:

Compound	CDMF75 IC15 [µM]	IC50 [µM]
CCc1nc(-c2cc(Cl)c3c(c2)CC[C@H]3NC(=O)c2cnn(C)c2)no1 [Compound 588, (R)-N-(7-chloro-5-(5-ethyl-1,2,4-oxadiazol-3-yl)-2,3-dihydro-1H-inden-1-yl)-1-methyl-1H-pyrazole-4-carboxamide]	1.2	4.3
Cc1ncc(C(=O)NC2COc3cc(-c4noc(C(F)F)n4)ccc32)o1 (stereo not shown) [Compound 205, N-(6-(5-(difluoromethyl)-1,2,4-oxadiazol-3-yl)-2,3-dihydrobenzofuran-3-yl)-2-methyloxazole-5-carboxamide]	1.1	4
CCc1nc(-c2ccc3c(c2)CC[C@H]3NC(=O)c2cnoc2C)no1 [Compound 564, (R)-N-(5-(5-ethyl-1,2,4-oxadiazol-3-yl)-2,3-dihydro-1H-inden-1-yl)-5-methylisoxazole-4-carboxamide]	0.2	0.6
Cc1ncc(C(=O)N[C@@H]2COc3cc(-c4noc(C5CC5)n4)ccc32)o1 [Compound 463, (S)-N-(6-(5-cyclopropyl-1,2,4-oxadiazol-3-yl)-2,3-dihydrobenzofuran-3-yl)-2-methyloxazole-5-carboxamide]	0.7	2.4
CCc1nc(-c2ccc3c(c2)CC[C@H]3NC(=O)c2cn[nH]c2)no1 [Compound 469, (R)-N-(5-(5-ethyl-1,2,4-oxadiazol-3-yl)-2,3-dihydro-1H-inden-1-yl)-1H-pyrazole-4-carboxamide]	0.3	1.1
C=Cn1cc(C(=O)N[C@@H]2CCc3cc(-c4noc(CC)n4)ccc32)cn1 [Compound 527, (R)-N-(5-(5-ethyl-1,2,4-oxadiazol-3-yl)-2,3-dihydro-1H-inden-1-yl)-1-vinyl-1H-pyrazole-4-carboxamide]	0.3	1.1
O=C(NC1CCc2cc(-c3noc(C(F)F)n3)ccc21)c1ccnc(O)c1 (stereo not shown) [Compound 95, N-(5-(5-(difluoromethyl)-1,2,4-oxadiazol-3-yl)-2,3-dihydro-1H-inden-1-yl)-2-hydroxyisonicotinamide]	1.9	8
CC(C)(C)OC(=O)NC1CCc2cc(-c3noc(C(F)F)n3)ccc21 (stereo not shown) [Compound 16, tert-butyl (5-(5-(difluoromethyl)-1,2,4-oxadiazol-3-yl)-2,3-dihydro-1H-inden-1-yl)carbamate]	8.9	> 39.2
O=C(N[C@@H]1CCc2cc(-c3noc(C4CC4)n3)ccc21)c1cnn(CCCO)c1 [Compound 601, (R)-N-(5-(5-cyclopropyl-1,2,4-oxadiazol-3-yl)-2,3-dihydro-1H-inden-1-yl)-1-(3-hydroxypropyl)-1H-pyrazole-4-carboxamide]	1.6	7.3
COCCOC(=O)N[C@@H]1CCc2cc(-c3noc(C4CC4)n3)ccc21 [Compound 327, 2-methoxyethyl (R)-(5-(5-cyclopropyl-1,2,4-oxadiazol-3-yl)-2,3-dihydro-1H-inden-1-yl)carbamate]	1.8	8.2
CCc1nc(-c2ccc3c(c2)OC[C@H]3NC(C)=O)no1 [Compound 443, (S)-N-(6-(5-ethyl-1,2,4-oxadiazol-3-yl)-2,3-dihydrobenzofuran-3-yl)acetamide]	0.7	2.6
COC(=O)N[C@@H]1CCc2cc(-c3nc(C4CC4)no3)ccc21 [Compound 350, methyl (R)-(5-(3-cyclopropyl-1,2,4-oxadiazol-5-yl)-2,3-dihydro-1H-inden-1-yl)carbamate]	0.5	2.1
CCc1nc(-c2ccc3c(c2)CC[C@H]3NC(=O)c2ncc(C)o2)no1 [Compound 636, (R)-N-(5-(5-ethyl-1,2,4-oxadiazol-3-yl)-2,3-dihydro-1H-inden-1-yl)-5-methyloxazole-2-carboxamide]	0.6	2.2
COCc1nc(-c2ccc3c(c2)CC[C@H]3NC(=O)c2cnc(C)s2)no1 [Compound 696, (R)-N-(5-(5-(methoxymethyl)-1,2,4-oxadiazol-3-yl)-2,3-dihydro-1H-inden-1-yl)-2-methylthiazole-5-carboxamide]	1.1	4.2
CCc1nc(-c2ccc3c(c2)CC[C@H]3NC(=O)c2cnn(CC3(F)COC3)c2)no1 [Compound 508, (R)-N-(5-(5-ethyl-1,2,4-oxadiazol-3-yl)-2,3-dihydro-1H-inden-1-yl)-1-((3-fluorooxetan-3-yl)methyl)-1H-pyrazole-4-carboxamide]	2.6	11.3
CCc1nc(-c2ccc3c(c2)CC[C@H]3NC(=O)c2ccc(=O)n(CCOC)c2)no1 [Compound 606, (R)-N-(5-(5-ethyl-1,2,4-oxadiazol-3-yl)-2,3-dihydro-1H-inden-1-yl)-1-(2-methoxyethyl)-6-oxo-1,6-dihydropyridine-3-carboxamide]	4.6	22.6
Cc1ccc(-c2ccc3c(c2)CC[C@H]3NC(=O)c2ccnn2C)cc1 [Compound 374, (R)-1-methyl-N-(5-(p-tolyl)-2,3-dihydro-1H-inden-1-yl)-1H-pyrazole-5-carboxamide]	1.7	6.4
CCc1nc(-c2ccc3c(c2)CC[C@H]3NC(=O)C2CCCC(=O)N2)no1 (stereo partly drawn) [Compound 354, N-((R)-5-(5-ethyl-1,2,4-oxadiazol-3-yl)-2,3-dihydro-1H-inden-1-yl)-6-oxopiperidine-2-carboxamide]	34.1	> 39.2
Cc1nc(-c2ccc3c(c2)CC[C@H]3NC(=O)c2ocnc2C)no1 [Compound 449, (R)-4-methyl-N-(5-(5-methyl-1,2,4-oxadiazol-3-yl)-2,3-dihydro-1H-inden-1-yl)oxazole-5-carboxamide]	0.5	1.5
